In patent publication US12544370B2, “Methods for cancer therapy” (ASCENTAGE PHARMA (SUZHOU) CO., LTD., priority 2018, dated 2026):

Assays:
[1] = system: tyrosine phosphorylation of CRKL in peripheral blood mononuclear cell (PBMCs); assay: Phase I study, pharmacodynamics: CRKL phosphorylation in PBMCs (Example 1); type: in vivo, human; details: doses 12 mg-60 mg, schedule and dose-dependent
[2] = system: patients with chronic phase (CP/CML-CP) or accelerated phase (AP/CML-AP) CML resistant to or intolerant of ≥2 prior TKIs or with BCR-ABL T315I; assay: Phase 1 trial in resistant CML, further efficacy (Example 2); type: in vivo, human
Text: The eligible patients received continuous treatment until disease progression or unacceptable toxicity, consent withdrawal, or death. The primary efficacy endpoints were major cytogenetic response (MCyR) for CP and complete hematological response (CHR) for AP. MCyR includes partial cytogenetic response (PCyR) and complete cytogenetic response (CCyR). Blood samples were collected at various time points on Day 1-2 and Day 27-28 during cycle 1 for PK analyses.

[3] = system: murine Ba/F3 cells expressing BCR-ABL^T315I; assay: Subcutaneous tumors, isogenic Ba/F3 BCR-ABL T315I model; type: in vivo
[4] = target: Ba/F3 containing BCR-ABL mutation E255K (Homo sapiens, UniProt P00519, E255K, cells depend on it); details: read-out: Antiproliferation Effect (IC50)
Text: (§1) Ba/F3 cells stably expressing BCR-ABL (F359V, H396R, E255K, Y253H, T315I, F317L) mutations were provided by the Institute of Life and Health, Guangzhou Academy of Sciences.
(§2) 1. The mutated Ba/F3 cell line stably expressing BCR-ABL (E255V, T315M, Y253H/E255V, Y253H/T315I, Y253H/F359V, T315I/F317L, F317L/F359V) mutation was constructed by electro-transformation method, the Ba/F3 cell line stably expressing the BCR-ABL (E255V/T315I, T315I/F359V) mutation was constructed by lentivirus infection method.
(§3) 2. Effect of drugs on the proliferation of BaF3 cells stably transfected with BCR-ABL single mutation or complex mutation by WST assay
(§4) The dilution was used as a cell blank control (excluding the sample to be tested, which was added to the cells). In addition, a negative control (excluding the sample to be tested and cells) was prepared. In addition to the negative control wells, 100 μl of complete medium cell suspension was added to each well. The dilution was added to the negative control wells at 100 μl/well. 3 repeated wells were set in the experiment. […] 20 μl of CCK-8 detection solution (Shanghai Life iLab Biotech Co., LTD, Cat #D3100L4057) was added to each well, incubating at 37° C. for 2 hours in a CO2 incubator. The OD value was measured at A450 nm by a microplate reader.
(§5) The percentage of cell viability was calculated using the following formula: (O.D. test well-O.D. negative control well)/(O.D. cell control well-O.D. negative control well)×100
(§6) The IC50 was calculated using a non-linear regression data analysis method of Graphpad Prism 6.0 software ([…]).

[5] = target: Ba/F3 containing BCR-ABL mutation E255V (Homo sapiens, UniProt P00519, E255V, cells depend on it); details: read-out: Antiproliferation Effect (IC50)
Text: as §1, §2, §3, §4, §5, §6

[6] = target: Ba/F3 containing BCR-ABL mutation E255V/T315I (Homo sapiens, UniProt P00519, E255V/T315I, cells depend on it); details: read-out: Antiproliferation Effect (IC50)
Text: as §1, §2, §3, §4, §5, §6

[7] = target: Ba/F3 containing BCR-ABL mutation F317L (Homo sapiens, UniProt P00519, F317L, cells depend on it); details: read-out: Antiproliferation Effect (IC50)
Text: as §1, §2, §3, §4, §5, §6

[8] = target: Ba/F3 containing BCR-ABL mutation F359V (Homo sapiens, UniProt P00519, F359V, cells depend on it); details: read-out: Antiproliferation Effect (IC50)
Text: as §1, §2, §3, §4, §5, §6

[9] = target: Ba/F3 containing BCR-ABL mutation H396R (Homo sapiens, UniProt P00519, H396R, cells depend on it); details: read-out: Antiproliferation Effect (IC50)
Text: as §1, §2, §3, §4, §5, §6

[10] = target: Ba/F3 containing BCR-ABL mutation T315I (Homo sapiens, UniProt P00519, T315I, cells depend on it); details: read-out: Antiproliferation Effect (IC50)
Text: as §1, §2, §3, §4, §5, §6

[11] = target: Ba/F3 containing BCR-ABL mutation T315I/F317L (Homo sapiens, UniProt P00519, T315I/F317L, cells depend on it); details: read-out: Antiproliferation Effect (IC50)
Text: as §1, §2, §3, §4, §5, §6

[12] = target: Ba/F3 containing BCR-ABL mutation T315I/F359V (Homo sapiens, UniProt P00519, T315I/F359V, cells depend on it); details: read-out: Antiproliferation Effect (IC50)
Text: as §1, §2, §3, §4, §5, §6

[13] = target: Ba/F3 containing BCR-ABL mutation Y253H (Homo sapiens, UniProt P00519, Y253H, cells depend on it); details: read-out: Antiproliferation Effect (IC50)
Text: as §1, §2, §3, §4, §5, §6

[14] = target: Ba/F3 containing BCR-ABL mutation Y253H/F359V (Homo sapiens, UniProt P00519, Y253H/F359V, cells depend on it); details: read-out: Antiproliferation Effect (IC50)
Text: as §1, §2, §3, §4, §5, §6

[15] = target: Ba/F3 containing BCR-ABL mutation Y253H/T315I (Homo sapiens, UniProt P00519, Y253H/T315I, cells depend on it); details: read-out: Antiproliferation Effect (IC50)
Text: as §1, §2, §3, §4, §5, §6

[16] = system: Ba/F3 cells having BCR-ABL^T315I
[17] = target: Ba/F3 containing BCR-ABL Wild Type (Homo sapiens, UniProt P00519); details: read-out: Antiproliferation Effect (IC50)
[18] = Table 4, AP-CML, With T315I mut., 11 evaluable
[19] = Table 4, AP-CML, With T315I mut., 11 evaluated
[20] = Table 4, AP-CML, Without T315I mut., 3 evaluable
[21] = Table 4, AP-CML, Without T315I mut., 3 evaluated
[22] = Table 4, CP-CML, With T315I mut., 48 evaluable
[23] = Table 4, CP-CML, With T315I mut., 51 evaluated
[24] = Table 4, CP-CML, Without T315I mut., 33 evaluable
[25] = Table 4, CP-CML, Without T315I mut., 35 evaluated

Q: Which results are given for Cc1ccc(C(=O)Nc2ccc(CN3CCN(C)CC3)c(C(F)(F)F)c2)cc1C#Cc1cnc2[nH]ncc2c1 [compound of formula (I-A), 3-(2-(1H-pyrazolo[3,4-b]pyridin-5-yl)ethynyl)-4-methyl-N-(4-((4-methylpiperazin-1-yl)methyl)-3-(trifluoromethyl)phenyl)-benzamide]?
A: reduction of CRKL phosphorylation [1]: ≥ 50%; progression free survival (PFS) rate at 18-month ([2]; AP patients (FIG. 7B)): 61%; progression free survival (PFS) rate at 18-month ([2]; CP patients (FIG. 7B)): 94%; anti-leukemic activity by dose ([2]; Example 2): potent anti-leukemic activities at doses ≥12 mg QOD; CHR achieved ([2]; Example 2, 68 evaluable patients with non-CHR at baseline (CP+AP)): 63 (92.6%) n (%); Complete molecular response, percent ([2]; Table 4, AP-CML, All Patients, 14 evaluated): (14.3%); Complete hematological response, percent ([2]; Table 4, AP-CML, With T315I mut., 10 evaluable): (80.0%); Complete cytogenetic response, percent [2, 18]: (45.5%); Major cytogenetic response, percent [2, 18]: (54.5%); Complete molecular response, percent [2, 19]: (18.2%); Major/Complete molecular response, percent [2, 19]: (45.5%); Complete cytogenetic response [2, 20]: 0 n(%); Complete hematological response [2, 20]: 3 (100.0%) n(%); Major cytogenetic response [2, 20]: 0 n(%); Complete molecular response [2, 21]: 0 n(%); Major/Complete molecular response [2, 21]: 0 n(%); Complete molecular response, percent ([2]; Table 4, CP-CML, All Patients, 86 evaluated): (20.9%); Complete hematological response, percent ([2]; Table 4, CP-CML, With T315I mut., 33 evaluable): (97.0%); Complete cytogenetic response, percent [2, 22]: (77.1%); Major cytogenetic response, percent [2, 22]: (81.3%); Complete molecular response, percent [2, 23]: (29.4%); Major/Complete molecular response, percent [2, 23]: (52.9%); Complete hematological response, percent ([2]; Table 4, CP-CML, Without T315I mut., 22 evaluable): (90.9%); Complete cytogenetic response, percent [2, 24]: (36.4%); Major cytogenetic response, percent [2, 24]: (51.5%); Complete molecular response, percent [2, 25]: (8.6%); Major/Complete molecular response, percent [2, 25]: (14.3%); effect on subcutaneous tumors [3]: complete regression; GI50 [4]: 22 ± 13 nM; GI50 [5]: 13.5 ± 1 nM; GI50 [6]: 26 ± 11 nM; GI50 [7]: 8 ± 3 nM; GI50 [8]: 281 ± 187 nM; GI50 [9]: 274 ± 82 nM; GI50 [10]: 24 ± 10 nM; GI50 [11]: 114 ± 9 nM; GI50 [12]: 7 ± 1 nM; GI50 [13]: 7 ± 1 nM; GI50 [14]: 100 ± 81 nM; GI50 [15]: 111 ± 1 nM; survival rate of isogenic leukemia mice ([16]; Ba/F3 BCR-ABL T315I): significantly improved the survival rate; survival of tumor bearing mice (FIG. 8) ([16]; oral q2d or q3d, dose-dependent manner, imatinib qd as control): significantly prolonged the survival; GI50 [17]: 6 ± 3 nM
